ChEMBL document CHEMBL1138997, “Synthesis and antitumor activity of simplified ecteinascidin-saframycin analogs” (Bioorg Med Chem Lett, 2006)

Assays:
Format in all cases: functional, cell-based
Conditions in all cases: Homo sapiens
BGC-823 = test: Cytotoxicity against BGC823 gastric carcinoma cell
Bel-7402 = test: Cytotoxicity against Bel7402 liver carcinoma cell
HCT-8 = test: Cytotoxicity against HCT8 colon carcinoma cell

| SMILES | IC50 (BGC-823) | IC50 (Bel-7402) | IC50 (HCT-8) |
| --- | --- | --- | --- |
| COc1cc2c(cc1OC)[C@@H]1[C@@H]3Cc4cc(OC)c(OC)cc4[C@H](COC(=O)c4ccccc4)N3[C@@H](C#N)[C@H](C2)N1C | 0.015 µM | 0.59 µM | 0.44 µM |
| COc1cc2c(cc1OC)[C@@H]1[C@@H]3Cc4cc(OC)c(OC)cc4[C@H](COC(=O)c4cnccn4)N3[C@@H](C#N)[C@H](C2)N1C | 1.69 µM | 3.5 µM | 3.48 µM |
| COc1cc2c(cc1OC)[C@@H]1[C@@H]3Cc4cc(OC)c(OC)cc4[C@H](COC(=O)c4cccnc4)N3[C@@H](C#N)[C@H](C2)N1C | 1.02 µM | 2.1 µM | 3.28 µM |
| COc1cc2c(cc1OC)[C@@H]1[C@@H]3Cc4cc(OC)c(OC)cc4[C@H](CNC(=O)c4ccccc4)N3[C@@H](C#N)[C@H](C2)N1C | 1.4 µM | 1.35 µM | 1.35 µM |
| COc1cc2c(cc1OC)[C@@H]1[C@@H]3Cc4cc(OC)c(OC)cc4[C@H](CNC(=O)c4ccccc4Cl)N3[C@@H](C#N)[C@H](C2)N1C | 1.91 µM | 1.87 µM | 1.85 µM |
| COc1cc2c(cc1OC)[C@@H]1[C@@H]3Cc4cc(OC)c(OC)cc4[C@H](COC(C)=O)N3[C@@H](C#N)[C@H](C2)N1C | 0.15 µM | 0.34 µM | 0.31 µM |
| COc1cc2c(cc1OC)[C@@H]1[C@@H]3Cc4cc(OC)c(OC)cc4[C@H](COC(=O)c4cccc(Cl)c4)N3[C@@H](C#N)[C@H](C2)N1C | 0.029 µM | 1.12 µM | 0.1 µM |
| COc1cc2c(cc1OC)[C@@H]1[C@@H]3Cc4cc(OC)c(OC)cc4[C@H](COC(=O)c4cncc(Br)c4)N3[C@@H](C#N)[C@H](C2)N1C | 0.45 µM | 1.49 µM | 1.17 µM |
| COc1cc2c(cc1OC)[C@@H]1[C@@H]3Cc4cc(OC)c(OC)cc4[C@H](COC(=O)CCCc4ccccc4)N3[C@@H](C#N)[C@H](C2)N1C | 0.75 µM | 0.12 µM | 0.83 µM |
| COc1cc2c(cc1OC)[C@@H]1[C@@H]3Cc4cc(OC)c(OC)cc4[C@H](CNC(=O)/C=C/c4ccccc4)N3[C@@H](C#N)[C@H](C2)N1C | 1.31 µM | 1.45 µM | 1.78 µM |
| COc1cc2c(cc1OC)[C@@H]1[C@@H]3Cc4cc(OC)c(OC)cc4[C@H](COC(=O)c4cc5ccccc5[nH]4)N3[C@@H](C#N)[C@H](C2)N1C | 0.01 µM | 0.85 µM | 0.62 µM |
| COc1cc2c(cc1OC)[C@@H]1[C@@H]3Cc4cc(OC)c(OC)cc4[C@H](COC(=O)/C=C/c4ccccc4)N3[C@@H](C#N)[C@H](C2)N1C | 0.058 µM | 0.68 µM | 0.037 µM |
| COc1cc2c(cc1OC)[C@@H]1[C@@H]3Cc4cc(OC)c(OC)cc4[C@H](COC(=O)c4cccs4)N3[C@@H](C#N)[C@H](C2)N1C | 0.21 µM | 0.82 µM | 1.6 µM |
| COc1cc2c(cc1OC)[C@@H]1[C@@H]3Cc4cc(OC)c(OC)cc4[C@H](COC(=O)c4cccc5ccccc45)N3[C@@H](C#N)[C@H](C2)N1C | 0.006 µM | 0.71 µM | 0.34 µM |
| COc1cc2c(cc1OC)[C@@H]1[C@@H]3Cc4cc(OC)c(OC)cc4[C@H](CNC(=O)c4cccs4)N3[C@@H](C#N)[C@H](C2)N1C | 1.16 µM | 0.79 µM | 1.28 µM |
| COc1cc2c(cc1OC)[C@@H]1[C@@H]3Cc4cc(OC)c(OC)cc4[C@H](COC(=O)Cc4ccc(F)cc4)N3[C@@H](C#N)[C@H](C2)N1C | 0.2 µM | 0.2 µM | 0.24 µM |
| COc1cc2c(cc1OC)[C@@H]1[C@@H]3Cc4cc(OC)c(OC)cc4[C@H](CNC(=O)c4ccco4)N3[C@@H](C#N)[C@H](C2)N1C | 1.32 µM | 1.2 µM | 1.38 µM |
| C=CC(=O)NC[C@H]1c2cc(OC)c(OC)cc2C[C@H]2[C@H]3c4cc(OC)c(OC)cc4C[C@@H]([C@H](C#N)N12)N3C | 2 µM | 1.87 µM | 2.71 µM |
| COc1cc2c(cc1OC)[C@@H]1[C@@H]3Cc4cc(OC)c(OC)cc4[C@H](COC(=O)c4ccco4)N3[C@@H](C#N)[C@H](C2)N1C | 0.58 µM | 0.75 µM | 0.69 µM |
| COc1ccc(CC(=O)OC[C@H]2c3cc(OC)c(OC)cc3C[C@H]3[C@H]4c5cc(OC)c(OC)cc5C[C@@H]([C@H](C#N)N23)N4C)cc1 | 1.14 µM | 3.01 µM | 3.56 µM |
| COc1cc2c(cc1OC)[C@@H]1[C@@H]3Cc4cc(OC)c(OC)cc4[C@H](CNC(=O)c4cccc5ccccc45)N3[C@@H](C#N)[C@H](C2)N1C | 1.86 µM | 2.08 µM | 1.72 µM |
| COc1cc2c(cc1OC)[C@@H]1[C@@H]3Cc4cc(OC)c(OC)cc4[C@H](CNC(=O)c4ccc([N+](=O)[O-])cc4)N3[C@@H](C#N)[C@H](C2)N1C | 1.37 µM | 1.22 µM | 1.23 µM |
| COc1cc2c(cc1OC)[C@@H]1[C@@H]3Cc4cc(OC)c(OC)cc4[C@H](CNC(=O)c4cccc(Cl)c4)N3[C@@H](C#N)[C@H](C2)N1C | 1.01 µM | 0.95 µM | 1.54 µM |
| CCC(=O)OC[C@H]1c2cc(OC)c(OC)cc2C[C@H]2[C@H]3c4cc(OC)c(OC)cc4C[C@@H]([C@H](C#N)N12)N3C | 0.15 µM | 0.11 µM | 0.3 µM |
| C=CC(=O)OC[C@H]1c2cc(OC)c(OC)cc2C[C@H]2[C@H]3c4cc(OC)c(OC)cc4C[C@@H]([C@H](C#N)N12)N3C | 0.46 µM | 0.76 µM | 2.14 µM |
| COc1cc2c(cc1OC)[C@@H]1[C@@H]3Cc4cc(OC)c(OC)cc4[C@H](COC(=O)[C@H]4Cc5ccccc5CN4Cc4ccccc4)N3[C@@H](C#N)[C@H](C2)N1C | 0.36 µM | 1.69 µM | 1.42 µM |
| COc1cc2c(cc1OC)[C@@H]1[C@@H]3Cc4cc(OC)c(OC)cc4[C@H](COC(=O)c4ccccn4)N3[C@@H](C#N)[C@H](C2)N1C | 1.44 µM | 2.02 µM | 5.15 µM |
